Measured values reported in patent publication US11207283B2 (priority 2016, dated 2021).

What was measured:
[1] = system: aspartate aminotransferase (AspAT); conditions: cited from earlier work
[2] = system: glutamate decarboxylase (GAD); conditions: cited from earlier work
TgOAT = conditions: for KI (inactivation): read-out: KI (inhibition constant of inactivation), 10 mM L-ornithine; for KI (inactivation) / kinact/KI / kinact (rate constant of enzyme inactivation): time-dependent inactivators; for KI (inactivation) / kinact (rate constant of enzyme inactivation): pH 8.0, 37° C.; for Ki: read-out: Ki (reversible inhibition), reversible inhibitors, calculated from the IC50 value; for selectivity of inactivation, TgOAT versus GABA-AT and human OAT (in words): compared with literature data on GABA-AT and human OAT; for activity in inactivating TgOAT (in words): summary of Table 1
[3] = system: Type I T. gondii tachyzoites; assay: Effect of TgOAT inactivators on T. gondii in vitro (YFP RH tachyzoites in HFF); assay type: cell-based, Toxoplasma gondii; conditions: HFF host cells, 72 hours, tested into the millimolar range
Procedure: HFFs were grown to confluence in black, flat-bottomed 96-well microplates. […] Control triplicates with only fibroblasts and with pyrimethamine and sulfadiazine (the current standard of treatment of T. gondii infection) were also conducted. The cells and parasites were then incubated at 37° C. for 72 hours. Fluorescence was measured using a Bio-Tek Synergy™ H4 Hybrid Multi-Mode Microplate Reader.

human OAT = molecular target: T1, human OAT (Homo sapiens, UniProt P04181); conditions: cited from earlier work
T1 sequence (P04181 36-439 limits assumed): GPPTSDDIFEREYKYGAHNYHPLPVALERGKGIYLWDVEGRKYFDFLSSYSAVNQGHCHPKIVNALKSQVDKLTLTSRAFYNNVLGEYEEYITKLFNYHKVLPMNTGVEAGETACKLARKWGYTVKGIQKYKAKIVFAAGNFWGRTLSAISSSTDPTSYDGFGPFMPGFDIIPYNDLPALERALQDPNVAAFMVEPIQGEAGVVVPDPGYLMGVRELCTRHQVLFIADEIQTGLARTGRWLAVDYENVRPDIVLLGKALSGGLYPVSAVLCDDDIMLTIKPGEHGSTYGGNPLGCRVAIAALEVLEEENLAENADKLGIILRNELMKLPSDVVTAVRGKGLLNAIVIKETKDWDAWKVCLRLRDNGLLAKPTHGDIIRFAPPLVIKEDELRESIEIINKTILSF

[4] = system: P. falciparum parasite, D6 (Sierra Leone); assay: Malaria SYBR Green I-based fluorescence (MSF) assay; assay type: cell-based, Plasmodium falciparum; conditions: concentrations up to 10000 ng/mL, data not shown
GABA-AT = conditions: cited from earlier work

In the case of `C=CC(N)CCC(=O)O` (stereo not shown) [Compound 22, 4-am inohex-5-enoic acid, reference compound], the “off-target activity at AspAT (in words)” value [1] is listed as “weakly affects”, the “off-target activity at GAD (in words)” value [2] is listed as “no activity” and the KI (inactivation) (TgOAT) is listed as 440 µM. For the same compound, the kinact/KI (TgOAT) was 383 M⁻¹ s⁻¹ and the “kinact (rate constant of enzyme inactivation)” value (TgOAT) was 9.9 min⁻¹.

For `NCc1c[nH]c(C(=O)O)c1` [Compound 17], the Ki (TgOAT) was over 5000 µM.

For `N[C@H](CF)CCC(=O)O` [Compound 18, (S)-4-amino-5-fluoropentanoic acid], the “inhibition of tachyzoite replication in vitro” value (“inhibition” for short) [3] is given as “no effects on active T. gondii infection”, the “activity against human OAT (in words)” value (human OAT) is given as “moderate inactivator” and the “antimalarial activity in live-cell parasite assay” value (“antimalarial activity” for short) [4] is given as “no antimalarial activity”. For the same compound, the “activity against GABA-AT (in words)” value (GABA-AT) was “moderate inactivator”, the “selectivity of inactivation, TgOAT versus GABA-AT and human OAT (in words)” value (“selectivity of inactivation” below) (TgOAT) was “high specific inactivation towards TgOAT but not GABA-AT or human OAT” and the KI (inactivation) (TgOAT) was 4.6 µM. For the same compound, the “activity in inactivating TgOAT (in words)” value (TgOAT) was “high activity in inactivating TgOAT”, the kinact/KI (TgOAT) was 36670 M⁻¹ s⁻¹ and the “kinact (rate constant of enzyme inactivation)” value (TgOAT) was 10 min⁻¹.

Compound `NCc1cscc1C(=O)O` [Compound 14] has a Ki (TgOAT) of 4200 µM.

For “gabaculine [Compound 23, reference compound]”, the “activity against GABA-AT (in words)” value (GABA-AT) is listed as “equally potent irreversible inhibitor” and the KI (inactivation) (TgOAT) is listed as 0.82 µM.

Work on `NCc1csc(C(=O)O)c1` [Compound 15] yielded a Ki (TgOAT) of 4900 µM.

In the case of `NCc1cocc1C(=O)O` [Compound 13], the Ki (TgOAT) is reported as over 5000 µM.

In the case of `NC1CC(C(=O)O)CC1Br` (stereo not shown) [Compound 9], the KI (inactivation) (TgOAT) is reported as 2600 µM, the kinact/KI (TgOAT) is reported as 31.7 M⁻¹ s⁻¹ and the “kinact (rate constant of enzyme inactivation)” value (TgOAT) is reported as 5.0 min⁻¹.

For `NC1C(F)CC(C(=O)O)C1Br` (stereo not shown) [Compound 10], the KI (inactivation) (TgOAT) was 110 µM, the kinact/KI (TgOAT) was 583 M⁻¹ s⁻¹ and the “kinact (rate constant of enzyme inactivation)” value (TgOAT) was 3.9 min⁻¹.

Work on `NCc1ccc(C(=O)O)s1` [Compound 16] yielded a Ki (TgOAT) of over 5000 µM.

In the case of `NC1CC(C(=O)O)CC1=C(Cl)Cl` (stereo not shown) [Compound 5], the “inhibition” value [3] is given as “no effects on active T. gondii infection”, the “activity against human OAT (in words)” value (human OAT) is given as “very weak reversible inhibitor” and the “antimalarial activity” value [4] is given as “no antimalarial activity”. For the same compound, the “activity against GABA-AT (in words)” value (GABA-AT) was “very weak reversible inhibitor”, the “selectivity of inactivation” value (TgOAT) was “high specific inactivation towards TgOAT but not GABA-AT or human OAT” and the KI (inactivation) (TgOAT) was 15 µM. The “activity in inactivating TgOAT (in words)” value (TgOAT) was “high activity in inactivating TgOAT”, the kinact/KI (TgOAT) was 4830 M⁻¹ s⁻¹ and the “kinact (rate constant of enzyme inactivation)” value (TgOAT) was 4.4 min⁻¹.

Work on `C[C@@H](F)[C@@H](N)CCC(=O)O` [Compound 12] yielded a Ki (TgOAT) of 2900 µM.

In the case of `NC1CC(C(=O)O)CC1=C(C(F)(F)F)C(F)(F)F` (stereo not shown) [Compound 2], the “inhibition” value [3] is given as “no effects on active T. gondii infection”, the “activity against human OAT (in words)” value (human OAT) is given as “highly potent inactivator” and the “antimalarial activity” value [4] is given as “no antimalarial activity”. For the same compound, the “activity against GABA-AT (in words)” value (GABA-AT) was “weak reversible inhibitor”, the KI (inactivation) (TgOAT) was 4.8 µM and the “activity in inactivating TgOAT (in words)” value (TgOAT) was “high activity in inactivating TgOAT”. For the same compound, the kinact/KI (TgOAT) was 15300 M⁻¹ s⁻¹ and the “kinact (rate constant of enzyme inactivation)” value (TgOAT) was 4.4 min⁻¹.

In the case of `NC1CC(C(=O)O)C=C1C(F)(F)C(F)(F)F` (stereo not shown) [Compound 6], the KI (inactivation) (TgOAT) is reported as 21 µM, the kinact/KI (TgOAT) is reported as 167 M⁻¹ s⁻¹ and the “kinact (rate constant of enzyme inactivation)” value (TgOAT) is reported as 0.21 min⁻¹.

With `NC1CC(C(=O)O)CC1=CC(F)(F)F` (stereo not shown) [Compound 3] the KI (inactivation) (TgOAT) was 30 µM, the kinact/KI (TgOAT) was 83.3 M⁻¹ s⁻¹ and the “kinact (rate constant of enzyme inactivation)” value (TgOAT) was 0.15 min⁻¹.

For `NCc1c(CC(=O)O)cccc1C(F)(F)F` [Compound 11], the “inhibition” value [3] is listed as “no effects on active T. gondii infection”, the “activity against human OAT (in words)” value (human OAT) is listed as “weak inactivator” and the “antimalarial activity” value [4] is listed as “no antimalarial activity”. For the same compound, the “activity against GABA-AT (in words)” value (GABA-AT) was “weak reversible inhibitor”, the “selectivity of inactivation” value (TgOAT) was “high specific inactivation towards TgOAT but not GABA-AT or human OAT” and the KI (inactivation) (TgOAT) was 15 µM. For the same compound, the “activity in inactivating TgOAT (in words)” value (TgOAT) was “high activity in inactivating TgOAT”, the kinact/KI (TgOAT) was 6000 M⁻¹ s⁻¹ and the “kinact (rate constant of enzyme inactivation)” value (TgOAT) was 5.4 min⁻¹.

With `NC1CC(C(=O)O)CC1F` (stereo not shown) [Compound 7] the KI (inactivation) (TgOAT) was 2100 µM, the kinact/KI (TgOAT) was 86.7 M⁻¹ s⁻¹ and the “kinact (rate constant of enzyme inactivation)” value (TgOAT) was 11 min⁻¹.

In the case of `NC1CC(C(=O)O)CC1(F)F` (stereo not shown) [Compound 8], the “off-target activity at GAD (in words)” value [2] is listed as “significant”, the KI (inactivation) (TgOAT) is listed as 130 µM and the kinact/KI (TgOAT) is listed as 1000 M⁻¹ s⁻¹. The “kinact (rate constant of enzyme inactivation)” value (TgOAT) was 7.8 min⁻¹.

With `NC1CC(C(=O)O)CC1=CC(F)(F)F` (stereo not shown) [Compound 4] the KI (inactivation) (TgOAT) was 21 µM, the kinact/KI (TgOAT) was 183 M⁻¹ s⁻¹ and the “kinact (rate constant of enzyme inactivation)” value (TgOAT) was 0.23 min⁻¹.

In the case of `NC(CF)CCC(=O)O` (stereo not shown) [5-Fluoro-4-aminopentanoic acid, reference compound], the “activity against GABA-AT (in words)” value (GABA-AT) is listed as “very efficient inactivator”.

In the case of `N[C@H]1C[C@@H](C(=O)O)CC1=C(F)F` [Compound 1], the “inhibition” value [3] is given as “no effects on active T. gondii infection”, the “activity against human OAT (in words)” value (human OAT) is given as “potent inactivator” and the “antimalarial activity” value [4] is given as “no antimalarial activity”. For the same compound, the “activity against GABA-AT (in words)” value (GABA-AT) was “extremely potent inactivator”, the KI (inactivation) (TgOAT) was 4.4 µM and the “activity in inactivating TgOAT (in words)” value (TgOAT) was “high activity in inactivating TgOAT”. The kinact/KI (TgOAT) was 41670 M⁻¹ s⁻¹ and the “kinact (rate constant of enzyme inactivation)” value (TgOAT) was 11 min⁻¹.
